Reference: patent publication US20050004093A1, “Beta-lactamase inhibitor prodrug” (Pfizer Inc, priority 2003, published 2005)
pIC50: −log10 of the molar value. ≈ marks a conversion by molar mass, not a printed value. Like-named read-outs stand apart in the source and are kept apart here.

How the values were obtained:
[1] = Plasma stability, mouse plasma
Procedure: (§1) The incubation consisted of 990 μl of plasma preincubated for 5 minutes at 37° C. in a 96-well heat block. The incubation was initiated with the addition of 10 gl of a 10 mM stock of compound in 100% methanol. Serial aliquots (100 μl) were removed and transferred to 200 μl of 75/25 acetonitrile/3% perchloric acid at 0, 1, 2, 5, 10, 20, 30, and 60 minutes. The samples were centrifuged, the supernatants transferred to injection vials, and 20 μl was injected onto the HPLC in-line with a LC/MS single quadropole mass spectrometer. The LC/MS system was run in the negative ion mode.

[2] = Plasma stability, rat plasma
Procedure: as §1

[3] = Plasma stability, dog plasma
Procedure: as §1

[4] = Plasma stability, monkey plasma
Procedure: as §1

[5] = Plasma stability, human plasma
Procedure: as §1

[6] = target: T1, BRO-2 β-lactamase, M. catarrhalis 87A1178 ATCC43617 (Moraxella catarrhalis, UniProt Q59514); assay: IC50 against β-lactamase in cell extract (colorimetric, chromogenic cephalosporin); type: biochemical; conditions: BRO-2, M. catarrhalis 87A1178 ATCC43617 cell extract
T1 sequence (Q59514 1-313 D293G): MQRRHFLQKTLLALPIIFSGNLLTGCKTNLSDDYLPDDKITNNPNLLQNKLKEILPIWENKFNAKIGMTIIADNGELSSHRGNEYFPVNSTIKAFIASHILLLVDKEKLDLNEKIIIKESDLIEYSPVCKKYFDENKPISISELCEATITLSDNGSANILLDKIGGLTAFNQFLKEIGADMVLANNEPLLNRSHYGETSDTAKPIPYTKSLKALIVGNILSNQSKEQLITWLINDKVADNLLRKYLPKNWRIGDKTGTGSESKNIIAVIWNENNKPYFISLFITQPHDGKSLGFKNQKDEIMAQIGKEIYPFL

[7] = target: T2, ROB-1 β-lactamase, H. influenzae ATCC43334 (Haemophilus influenzae, UniProt P67918); assay: biochemical
T2 sequence (P67918 34-305): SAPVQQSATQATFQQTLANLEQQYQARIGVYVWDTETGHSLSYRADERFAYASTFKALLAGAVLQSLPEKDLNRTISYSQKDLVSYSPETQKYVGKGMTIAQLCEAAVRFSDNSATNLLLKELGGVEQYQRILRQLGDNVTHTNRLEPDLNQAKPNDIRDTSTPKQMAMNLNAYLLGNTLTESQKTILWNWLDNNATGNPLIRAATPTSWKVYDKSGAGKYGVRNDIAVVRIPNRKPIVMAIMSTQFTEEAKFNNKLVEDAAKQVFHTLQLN

[8] = target: T3, BRO-1 β-lactamase, M. catarrhalis 87A1115 (Moraxella catarrhalis, UniProt Q59514); assay: biochemical
T3 sequence (Q59514 26-313): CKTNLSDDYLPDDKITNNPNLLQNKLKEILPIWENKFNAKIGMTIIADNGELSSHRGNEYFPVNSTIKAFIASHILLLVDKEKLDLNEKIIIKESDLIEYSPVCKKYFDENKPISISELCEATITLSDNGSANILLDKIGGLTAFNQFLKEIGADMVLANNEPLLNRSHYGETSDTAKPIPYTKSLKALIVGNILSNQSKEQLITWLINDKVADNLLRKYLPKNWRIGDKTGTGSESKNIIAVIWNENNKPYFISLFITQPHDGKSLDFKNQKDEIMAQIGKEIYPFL

[9] = target: T4, Sme-I β-lactamase, Serratia S6 (Serratia marcescens, UniProt P52682); assay: biochemical
T4 sequence (P52682 28-294): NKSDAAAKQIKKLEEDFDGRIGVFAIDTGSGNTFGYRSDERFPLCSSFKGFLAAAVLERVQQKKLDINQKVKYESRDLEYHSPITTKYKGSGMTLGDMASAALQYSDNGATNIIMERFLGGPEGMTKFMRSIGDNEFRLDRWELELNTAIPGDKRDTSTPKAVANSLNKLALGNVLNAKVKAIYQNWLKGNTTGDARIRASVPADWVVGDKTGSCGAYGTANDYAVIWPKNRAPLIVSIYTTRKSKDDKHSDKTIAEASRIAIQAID
Excerpt: Biochemical activity against β-lactamases from other pathogens, including those associated with skin infections:

[10] = tested on: Streptococcus pneumoniae (02J1046); assay: Gerbil otitis media model; type: in vivo; conditions: single agent, oral, t.i.d. for 2 days, bacterial clearance day 4 post-challenge
[11] = tested on: Haemophilus influenzae (54A1218); assay: Gerbil otitis media model; type: in vivo; conditions: single agent, oral, t.i.d. for 2 days, bacterial clearance day 4 post-challenge
[12] = tested on: Moraxella catarrhalis (87A1115); assay: Murine systemic infection model; type: in vivo; conditions: single agent, oral, b.i.d. for 1 day, mice, survival day 4 post-challenge
[13] = tested on: Staphylococcus aureus (01A0400); assay: Murine systemic infection model; type: in vivo; conditions: single agent, oral, b.i.d. for 1 day, mice, survival day 4 post-challenge
[14] = tested on: Streptococcus pneumoniae (02J1095); assay: Murine systemic infection model; type: in vivo; conditions: single agent, oral, b.i.d. for 1 day, mice, survival day 4 post-challenge
[15] = tested on: Streptococcus pneumoniae (02J1095); assay: Murine pneumonia model; type: in vivo; conditions: single agent, oral, b.i.d. for 2 days, mice, survival day 10 post-challenge
[16] = tested on: clinical isolates of S. pneumoniae; assay: Susceptibility assay (NCCLS broth microdilution MIC), non-β-lactamase producing species; conditions: Streptococcus pneumoniae
esterases = assay: Hydrolysis in the presence of esterases; type: in vitro ADME
Excerpt: (§2) Based upon this correlation, the rat was used to predict human absorption. […] Thus, oral bioavailability assessments in rats should correlate well with the fraction absorbed in humans.

[17] = Hepatic extraction, rat hepatocytes; type: in vitro ADME
Excerpt: as §2

[18] = Hepatic extraction, human hepatocytes; type: in vitro ADME
Excerpt: as §2

[19] = administered orally, rodents, preclinical studies; cited from earlier work

Row | Compound | pIC50 [6] | pIC50 [7] | pIC50 [8] | pIC50 [9] | ED50 [12] | ED50 [13] | ED50 [14] | ED50 [15] | half-life at 100 μM ([1]; mouse, plasma) | half-life at 100 μM ([2]; rat, plasma) | half-life at 100 μM ([3]; dog, plasma) | half-life at 100 μM ([5]; human, plasma) | further results
1 | CC1(C)[C@H](C(=O)[O-])N2C(=O)[C@@H](CO)[C@H]2S1(=O)=O.[Na+] [Na-HMPAS, 4-Thia-1-azabicyclo [3,2,0]heptane-2-carboxylic acid, 6-(hydroxymethyl)-3,3-dimethyl-7-oxo-,4,4-dioxide, monosodium salt, (2S,5R,6R)] | 6.49 | 8.00 | 6.84 | 6.17 |  |  |  |  |  |  |  |  | half-life at 100 μM [1]: 3.9 h; half-life at 100 μM [2]: 3.4 h; half-life at 100 μM [3]: > 4 h; half-life at 100 μM [4]: > 4 h; half-life at 100 μM [5]: > 4 h
2 | CC1(C)S[C@@H]2[C@H](NC(=O)[C@H](N)c3ccc(O)cc3)C(=O)N2[C@H]1C(=O)O [Amoxicillin, amoxicillin] |  |  |  |  | > 200 mg/kg | > 200 mg/kg | < 100 mg/kg | < 100 mg/kg |  |  |  |  | ED50 [10]: > 50 mg/kg; ED50 [11]: > 50 mg/kg; MIC ([16]; read-out: Amoxicillin MICs, 12 penicillin-susceptible S. pneumoniae isolates): 0.0156 to 0.06 µg/mL (≈ 0.0427 to 0.164 µM); MIC ([16]; read-out: Amoxicillin MICs, 21 penicillin-intermediate S. pneumoniae): 0.03 to 1 µg/mL (≈ 0.0821 to 2.74 µM); MIC50 ([16]; read-out: amoxicillin MIC50): 2 µg/mL (≈ 5.47 µM); MIC90 ([16]; read-out: amoxicillin MIC90): 4 µg/mL (≈ 10.9 µM)
3 | CC1(C)[C@H](C(=O)OCOC(=O)OC2CCOCC2)N2C(=O)[C@@H](CO)[C@H]2S1(=O)=O [Prodrug 1, 4-Thia-1-azabicyclo[3.2.0]heptane-2-carboxylic acid, 6-(hydroxymethyl)-3,3-dimethyl-7-oxo-,[[[(tetrahydro-2H-pyran-4-yl)oxy]carbonyl]oxy]methyl ester, 4,4-dioxide (2S,5R,6R)] |  |  |  |  | > 25 mg/kg | > 25 mg/kg | > 25 mg/kg | > 25 mg/kg | < 0.0333 h | < 0.0333 h | 0.167 h | 0.112 h | time to hydrolysis (esterases): within a few minutes; melting point: 136 °C
4 | CC1(C)C(C(=O)O)N2C(=O)C(CO)C2S1(=O)=O (stereo not drawn) [Prodrug 6-β-HMPAS, 6-β-hydroxymethylpenicillanic acid sulfone] |  |  |  |  |  |  |  |  |  |  |  |  | hepatic extraction [17]: minimal; hepatic extraction [18]: minimal; oral absorption [19]: very poorly absorbed
5 | O=C(O)[C@H]1/C(=C/CO)O[C@@H]2CC(=O)N21 [Clavulanate, lithium clavulanate] | 6.96 | 7.40 | 6.85 | 4.71 |  |  |  |  | > 4 h | 3.3 h | 2.8 h | 2.6 h | half-life at 100 μM ([4]; monkey, plasma): 3.6 h
